Reference: PubChem BioAssay (NCI)
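Test compounds were applied to cells in 96-well plates for 48 hours at 5 doses. At the GI50, growth is halved. TGI: total growth inhibition.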 Calls of active or inactive are those of the source. No stated cut-off is given here; in the data, active means GI50 below about 0.43 µM; inactive means the rest.

Tests used:
Test in all cases: growth of human tumour cells (NCI), 48 h
[1] = system: RPMI-8226 leukemia
[2] = system: COLO 205 colon
[3] = system: M14 melanoma
[4] = system: SF-539 CNS
[5] = system: EKVX NSCLC
[6] = system: SN12C renal
[7] = system: CAKI-1 renal
[8] = system: NCI/ADR-RES ovarian
[9] = system: SK-MEL-2 melanoma

Row | Compound | TGI [1] [µM] | TGI [2] [µM] | TGI [3] [µM] | TGI [4] [µM] | TGI [5] [µM] | TGI [6] [µM] | TGI [7] [µM] | GI50 [8] [µM] | TGI [8] [µM] | TGI [9] [µM] | outcome [4]
1 | CN(C)CCC(=O)/C=C\c1ccccc1 | 34.4 | 29.3 | 30.4 | 30.7 | 33.9 | 30.7 | 32.7 |  |  |  | 
2 | CC(=O)c1cnc2oc3ccc(O)cc3c2c1-c1ccccc1 | > 100 | > 100 | > 100 | 46.2 | > 100 | > 100 | > 100 | 19.6 | 75 | > 100 | 
3 | C[C@H]1SC(c2ccc(Cl)cc2Cl)N(NC(=O)c2ccncc2)C1=O (stereo partly specified) | > 100 | > 100 | 69.9 |  | 98.8 | > 100 | > 100 |  | > 100 | 58.3 | 
4 | COc1nc(C#CC(C)(C)C)nc(OC)n1 |  | > 100 | > 100 | 83.1 | > 100 | 79 | 51.9 |  | 46.1 | > 100 | 
5 | OCc1ccc2c(c1)CC1(Cc3ccc(/C=N/O)cc3C1)C2 (stereo unspecified) | 28.6 | 13.9 | 21.6 | 11.3 | > 100 | > 54.5 | > 89.7 |  | 37 | 42.3 | 
6 | COC(=O)c1cc(C#N)[nH]c1-c1cc(Br)cs1 | 51.2 | 35.6 | 27.7 | 33.3 | 47.6 | 32.3 | 62.7 |  | 39.3 | 35.2 | 
7 | N#Cc1nc(NC(=O)c2ccccc2C(=O)O)c(C#N)[nH]1 | > 100 | > 100 | > 100 | > 100 | > 100 | > 100 | > 100 |  | > 100 | > 100 | 
8 | NC(=O)N/N=C1\CC2C3CC4C2C4C13 (stereo unspecified) | > 100 | > 100 | > 100 | > 100 | > 100 | > 100 | > 100 |  | > 100 | > 100 | 
9 | COc1ccc(C2c3cc4c(cc3OC(N3CCOCC3)C2C)OCO4)c(OC)c1OC (stereo unspecified) | 39.8 | 33.6 | 33.5 | 27.7 | > 100 | > 100 | 9.74 |  | > 100 | 36.2 | 
10 | COc1ccc(N(C(=O)Nc2ccc(Cl)c(Cl)c2)C2c3cccn3C(=O)N2c2ccc(Cl)c(Cl)c2)cc1 (stereo unspecified) | > 100 | > 100 | > 100 | > 100 | > 100 | > 100 | > 100 |  | > 100 | > 100 | 
11 | O=C(C(Cl)=C(N1CCOCC1)N1CCOCC1)C(Cl)Cl | > 100 | > 100 | > 100 | > 100 | > 100 | > 100 | > 100 |  | > 100 |  | 
12 | CCOC(=O)/C(O)=C1\C(=O)N(C)C(=O)C1c1cccc(OC)c1 (stereo unspecified) | > 100 | > 100 |  | > 100 | > 100 | > 100 | > 100 |  | > 100 | > 100 | 
13 | Cc1ccc(C2=CC(=O)/C(=C\C(=O)c3ccc(Cl)cc3)O2)cc1 | 6.31 | 26.1 | 39.3 | 55.1 | > 100 |  | 4.38 |  | 49.6 |  | 
14 | O=C(N/N=C/c1ccc(Br)cc1)N/N=C/c1ccc(Br)cc1 | 40.1 | > 100 | 32.4 |  | 31.3 | 17.4 | 18 |  | 29.6 | > 100 | 
15 | O=c1[nH]nc(Cc2ccccc2)n1/N=C/c1ccncc1 | > 100 | > 100 | > 100 | > 100 | > 100 | > 100 | > 100 |  | > 100 |  | 
16 | COc1cc2c(c(O)c1OC)C(=O)C(Cc1ccc(O)cc1)CO2 (stereo unspecified) | 60.3 | > 100 | 84 | 41.7 |  | > 100 | 75.9 |  | 39.2 | > 100 | 
17 | N#Cc1c(-c2ccccc2)cc(-c2ccc(Cl)cc2)[nH]c1=S | 80.2 | 71.1 | > 100 |  | 70.4 | > 100 | > 100 |  | > 100 |  | 
18 | CCCCn1c(-c2ccc([N+](=O)[O-])cc2)cs/c1=N/N=C1\C(=O)Nc2ccc(Br)cc21 |  | 28.7 | 27.1 | 28 | 79.3 | 11.4 | 63.2 |  | 37.4 |  | 
19 | COc1ccc(COCC[C@H](C)OC2OC(CO[Si](C)(C)C(C)(C)C)C(OC(=O)CCCN=[N+]=[N-])C(OC(=O)CCCN=[N+]=[N-])C2OC(=O)CCCN=[N+]=[N-])cc1 (stereo partly specified) |  | 83.1 | > 100 | > 100 | > 100 | > 100 | > 100 |  | 60.9 | > 100 | 
20 | CC12CCCC3(CC(=O)C(C)(C)C3C(=O)C1)C2 (stereo unspecified) | > 100 | > 100 | > 100 |  | > 100 | > 100 | > 100 |  | > 100 | > 100 | 
21 | c1c2c(cc(-n3nnc4c3CCCCCC4)c1-n1nnc3c1CCCCCC3)CCCCCC2 |  |  | 32.8 |  | 23.6 | 24.4 | 7.17 |  |  | 34.6 | inactive
22 | CC1(C)[C@H]2CC[C@@]13C(=O)N1C(=O)O[C@@H]([C@H]1Cl)C(Cl)(COCc1ccccc1)C(=O)OCCO[C@H]3C2 (stereo partly specified) | > 100 | 36.6 | > 100 | > 100 | > 100 |  | > 100 |  | > 100 | > 100 | 
23 | CN(C)CCNC(=O)c1cccc2nc(-c3ccccc3)oc12 | > 100 | 42.8 |  | > 100 | > 55.8 | > 100 |  |  | 99.6 | > 100 | 
24 | COc1cc2ccc1OCc1cccc(n1)COc1ccc(cc1OC)C=Nc1ccc(cc1)N=C2 |  | > 100 | > 100 | > 100 | > 100 | > 100 | > 100 |  | > 100 | > 100 | 
25 | O=c1cc(/C=C/c2ccccc2)[nH]c2cc3c(cc12)OCO3 | 3.18 | 6.43 | 17.1 | 4.69 | 25 | 23.9 |  |  | 5.38 | 9.11 | 
